In patent publication US20090203577A1 (EXELIXIS, INC., priority 2005, published 2009):
Converted amounts (≈) assume the structure as drawn.

Legend:
[1] = biological target: T1, human farnesoid X receptor (Homo sapiens, UniProt Q96RI1); experiment: FXR in vitro assays (farnesoid X receptor/ECREx7 co-transfection assay, TR-FRET assay), Table I; assay type: cell-based; conditions: for EC50: agonist activity, one or more of the in vitro assays, read-out: EC50; for Emax: read-out: % Efficacy
T1 construct: CMX-farnesoid X receptor (full length human farnesoid X receptor); expressed in transfected cells; host or cells: CV-1 African Green Monkey Kidney cells
T1 sequence (Q96RI1 1-472 isoform Q96RI1-2): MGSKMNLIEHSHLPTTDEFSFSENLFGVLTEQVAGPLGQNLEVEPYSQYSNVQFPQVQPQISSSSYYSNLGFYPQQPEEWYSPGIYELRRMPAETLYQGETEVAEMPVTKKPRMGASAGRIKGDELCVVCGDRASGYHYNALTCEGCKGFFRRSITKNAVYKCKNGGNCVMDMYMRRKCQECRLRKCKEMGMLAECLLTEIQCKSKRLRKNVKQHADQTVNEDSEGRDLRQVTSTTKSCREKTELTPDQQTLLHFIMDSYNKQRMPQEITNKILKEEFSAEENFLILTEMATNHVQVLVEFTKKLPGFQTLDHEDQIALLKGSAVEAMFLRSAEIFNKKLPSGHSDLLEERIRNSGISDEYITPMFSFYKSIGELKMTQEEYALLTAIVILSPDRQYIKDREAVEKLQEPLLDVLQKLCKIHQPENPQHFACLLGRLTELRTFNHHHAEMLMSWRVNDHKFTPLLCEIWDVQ
T1 sequence (P19793 1-462 partner): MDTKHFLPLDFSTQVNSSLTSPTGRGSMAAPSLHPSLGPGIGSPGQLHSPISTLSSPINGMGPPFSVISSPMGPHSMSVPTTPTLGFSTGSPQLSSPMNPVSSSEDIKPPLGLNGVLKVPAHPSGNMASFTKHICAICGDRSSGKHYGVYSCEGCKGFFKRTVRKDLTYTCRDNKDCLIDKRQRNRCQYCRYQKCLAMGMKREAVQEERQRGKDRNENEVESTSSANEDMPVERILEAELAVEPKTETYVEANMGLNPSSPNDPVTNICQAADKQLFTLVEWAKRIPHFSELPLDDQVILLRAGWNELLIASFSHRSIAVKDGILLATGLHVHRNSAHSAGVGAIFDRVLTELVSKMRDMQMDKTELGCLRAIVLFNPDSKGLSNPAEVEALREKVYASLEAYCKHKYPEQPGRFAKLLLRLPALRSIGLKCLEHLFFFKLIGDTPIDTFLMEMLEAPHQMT
Outline: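 CV-1 monkey kidney cells transfected for an FXR/ECREx7 luciferase co-transfection reporter; luciferase read 18-20 h later in lysates. 8-point dose-response at ½-log spacing, 4 wells per point; EC50/IC50 from four-parameter Hill fit, averaged over at least 3 independent experiments.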

Kinetic solubility assay = experiment: Kinetic solubility assay
Procedure: The kinetic solubility of test compounds in buffer was evaluated using a 96 well filtration plate format. A 500 μM assay solution in PBS, pH7.4 (or other assay buffer, as needed) was generated form a DMSO stock solution (up to 10 mM). Samples were transferred to a 96 Millipore MultiScreen HTS 96-well Filter plate (Cat# MSSLBPC10) mixed by shaking for 1.5 hours and processed by filtration prior to quantitation by HPLC-UV. Amiodarone and testosterone were used as reference controls.

[2] = pH 7.4, aqueous buffer, kinetic from dmso stock

Row | Compound | % Efficacy [1] | Kinetic Solubility μM (Kinetic solubility assay; 500 μM assay solution in PBS, pH7.4 from DMSO stock, filtration, HPLC-UV) | EC50 [1] [nM] | Emax [1] [%] | solubility kinetic at 1.5 h (Kinetic solubility assay; [2]) [µM] | solubility kinetic (Kinetic solubility assay; [2]) [µM]
1 | 1-methyethyl 1,1-dimethyl- 3-({4-[4-(trifluoromethyl)- 1H-pyrazol-1- yl]phenyl}carbonyl)-1,2,3,6- tetrahydroazepino[4,5- b]indole-5-carboxylate [Example 158] | A (key: A=>100%; B=80-100%; C=60-80%; D=40-60%; E=<40%) | C (C=0.1-1.0 μM) | – | – | – | –
2 | CC(C)OC(=O)C1=CN(C(=O)C2CCN(C)CC2)CC(C)(C)c2c1[nH]c1ccccc21 [Example 6, 1-methylethyl 1,1-dimethyl-3-[(1-methylpiperidin-4-yl)carbonyl]-1,2,3,6-tetrahydroazepino[4,5-b]indole-5-carboxylate] | – | – | 1000 to 10000 | > 100 | 0.1 to 1 (≈ 0.0424 to 0.424 µg/mL) | –
3 | CC(C)OC(=O)C1=CN(C(=O)N2CCN(C)CC2)CC(C)(C)c2c1[nH]c1ccccc21 [Example 16] | – | – | 100 to 1000 | > 100 | 0.1 to 1 (≈ 0.0425 to 0.425 µg/mL) | –
4 | CCC(=O)N1C=C(C(=O)OC(C)C)c2[nH]c3ccccc3c2C(C)(C)C1 [Example 19] | – | – | 100 to 1000 | > 100 | > 10 | –
5 | CCCNC(=O)N1C=C(C(=O)OC(C)C)c2[nH]c3ccccc3c2C(C)(C)C1 [Example 23, 1-methylethyl 1,1-dimethyl-3-[(propylamino)carbonyl]-1,2,3,6-tetrahydroazepino[4,5-b]indole-5-carboxylate] | – | – | 100 to 1000 | > 100 | 1 to 10 (≈ 0.383 to 3.83 µg/mL) | –
6 | CCN1CCN(C(=O)N2C=C(C(=O)OC(C)C)c3[nH]c4ccccc4c3C(C)(C)C2)CC1 [Example 25, 1-methylethyl 3-[(4-ethylpiperazin-1-yl)carbonyl]-1,1-dimethyl-1,2,3,6-tetrahydroazepino[4,5-b]indole-5-carboxylate] | – | – | 10 to 100 | > 100 | > 10 | –
7 | CC(C)OC(=O)C1=CN(C(=O)N2CCNCC2)CC(C)(C)c2c1[nH]c1ccccc21 [Example 26, 1-methylethyl 1,1-dimethyl-3-(piperazin-1-ylcarbonyl)-1,2,3,6-tetrahydroazepino [4,5-b]indole-5-carboxylate] | – | – | 1000 to 10000 | > 100 | > 10 | –
8 | CC(C)OC(=O)C1=CN(C(=O)N2CCC(N3CCCC3)CC2)CC(C)(C)c2c1[nH]c1ccccc21 [Example 28, 1-methylethyl 1,1-dimethyl-3[(4-pyrrolidin-1-ylpiperidin-1-yl)carbonyl]-1,2,3,6-tetrahydroazepino[4,5-b]indole-5-carboxylate] | – | – | 1000 to 10000 | 80 to 100 | > 10 | –
9 | CC(C)OC(=O)C1=CN(C(=O)N2CCN(CC3CCN(C)CC3)CC2)CC(C)(C)c2c1[nH]c1ccccc21 [Example 29, 1-methylethyl 1,1-dimethyl-3-({4-[(1-methylpiperidin-4-yl)methyl]piperazin-1-yl}carbonyl)-1,2,3,6-tetrahydroazepino [4,5-b]indole-5-carboxylate] | – | – | 1000 to 10000 | 40 to 60 | > 10 | –
10 | CC(C)OC(=O)C1=CN(C(=O)c2cccc(OCCN3CCCCC3)c2)CC(C)(C)c2c1[nH]c1ccccc21 [Example 159, 1-methylethyl 1,1-dimethyl-3-({3-[(2-piperidin-1-ylethyl)oxy]phenyl}carbonyl)-1,2,3,6-tetrahydroazepino[4,5-b]indole-5-carboxylate] | – | – | – | – | 1 to 10 (≈ 0.53 to 5.3 µg/mL) | –
11 | CC(C)OC(=O)C1=CN(C(=O)c2cccc(CN3CCN(C(=O)c4ccccc4)CC3)c2)CC(C)(C)c2c1[nH]c1ccccc21 [Example 175, 1-methylethyl 1,1-dimethyl-3-[(3-{[4-(phenylcarbonyl)piperazin-1-yl]methyl}phenyl)carbonyl]-1,2,3,6-tetrahydroazepino[4,5-b]indole-5-carboxylate] | – | – | 100 to 1000 | > 100 | – | –
12 | CC(C)OC(=O)C1=CN(C(=O)c2cccc(CN3CCCCCCC3)c2)CC(C)(C)c2c1[nH]c1ccccc21 [Example 176, 1-methylethyl 3-{[3-(azocan-1-ylmethyl)phenyl]carbonyl}-1,1-dimethyl-1,2,3,6-tetrahydroazepino[4,5-b]indole-5-carboxylate] | – | – | 100 to 1000 | > 100 | – | –
13 | CC(C)OC(=O)C1=CN(C(=O)c2cccc(CN3CCNCC3)c2)CC(C)(C)c2c1[nH]c1ccccc21 [Example 178, 1-methylethyl 1,1-dimethyl-3-{[3-(piperazin-1-ylmethyl)phenyl]carbonyl}-1,2,3,6-tetrahydroazepino[4,5-b]indole-5-carboxylate] | – | – | > 10000 | – | – | –
14 | CC(C)OC(=O)C1=CN(C(=O)c2cc(F)c(F)c(OCCN3CCOCC3)c2)CC(C)(C)c2c1[nH]c1ccccc21 [Example 179, 1-methylethyl 3-({3,4-difluoro-5-[(2-morpholin-4-ylethyl)oxy]phenyl}carbonyl)-1,1-dimethyl-1,2,3,6-tetrahydroazepino[4,5-b]indole-5-carboxylate] | – | – | 10 to 100 | > 100 | – | –
15 | CC(C)OC(=O)C1=CN(C(=O)c2cc(F)c(F)c(OCCN3CCCCC3)c2)CC(C)(C)c2c1[nH]c1ccccc21 [Example 180, 1-methylethyl 3-({3,4-difluoro-5-[(2-piperidin-1-ylethyl)oxy]phenyl}carbonyl)-1,1-dimethyl-1,2,3,6-tetrahydroazepino[4,5-b]indole-5-carboxylate] | – | – | 10 to 100 | > 100 | – | –
16 | CC(C)OC(=O)C1=CN(C(=O)c2ccc(OCCN3CCOCC3)cc2)CC(C)(C)c2c1[nH]c1ccccc21 [Example 181, 1-methylethyl 1,1-dimethyl-3-({4-[(2-morpholin-4-ylethyl)oxy]phenyl}carbonyl)-1,2,3,6-tetrahydroazepino[4,5-b]indole-5-carboxylate] | – | – | – | – | 1 to 10 (≈ 0.532 to 5.32 µg/mL) | –
17 | CC(C)OC(=O)C1=CN(C(=O)c2cccc(CN3CCN(C(=O)Nc4ccccc4)CC3)c2)CC(C)(C)c2c1[nH]c1ccccc21 [Example 184] | – | – | 10 to 100 | > 100 | – | –
18 | CCN(CC)CCCOc1cccc(C(=O)N2C=C(C(=O)OC(C)C)c3[nH]c4ccccc4c3C(C)(C)C2)c1 [Example 188, 1-methylethyl 3-[(3-{[3-(diethylamino)propyl]oxy}phenyl)carbonyl]-1,1-dimethyl-1,2,3,6-tetrahydroazepino[4,5-b]indole-5-carboxylate] | – | – | 1000 to 10000 | > 100 | – | –
19 | CC(COC(=O)c1ccc(F)c(F)c1)OC(=O)C1=CN(C(=O)c2ccc(F)c(F)c2)CC(C)(C)c2c1[nH]c1ccccc21 (stereo not shown) [Example 194, 2-{[(3,4-difluorophenyl)carbonyl]oxy}-1-methylethyl 3-[(3,4-difluorophenyl)carbonyl]-1,1-dimethyl-1,2,3,6-tetrahydroazepino[4,5-b]indole-5-carboxylate] | – | – | 10 to 100 | > 100 | – | –
20 | CC1(C)CN(C(=O)c2ccc(F)c(F)c2)C=C(C(=O)OCCOCc2ccccc2)c2[nH]c3ccccc3c21 [Example 195, 2-[(phenylmethyl)oxy]ethyl 3-[(3,4-difluorophenyl)carbonyl]-1,1-dimethyl-1,2,3,6-tetrahydroazepino[4,5-b]indole-5-carboxylate] | – | – | 100 to 1000 | > 100 | – | –
21 | C[C@]12CC[C@H]3[C@@H](CCC4=CC(=O)CC[C@@]43C)[C@@H]1CC[C@@H]2O [testosterone, reference compound] | – | – | – | – | – | ~330 (≈ 95.2 µg/mL)
